Numbered stars: 1 amine (or outer) side, 2 acyl side, 3 side chain; on linkers, the order of the positions; unused ones are H or OH. Bridge positions count the residues as written; N and C are the ends. Square brackets hold non-standard residues; d marks the D form. Peptide text beside a SMILES is read from it. I, II: the chains in the order shown. Actinocin(1to9) = Cc1c2oc3c(C)ccc(C(=O)[*:2])c3nc-2c(C(=O)[*:1])c(N)c1=O; NMeV = CN[C@H](C(=O)O)C(C)C; Sar = CNCC(=O)O
Legend:
physchem = details: octanol/water, pH 7.4

Description for CHO: Effect on cross resistance of CHO cells resistant to colchicine (CHRC5)
Description for L1210: Cross resistance profile versus L1210/R71 cells.

| SMILES | logD (physchem) | Log CR (CHO) | Log CR (L1210) |
| --- | --- | --- | --- |
| S=P(N1CC1)(N1CC1)N1CC1 [THIOTEPA] | 0.53 | 0 | – |
| CC(=O)c1cccc(N2C(N)=NC(N)=NC2(C)C)c1 | -3.55 | – | 2.2 |
| O=C(O)CCCc1ccc(N(CCCl)CCCl)cc1 [CHLORAMBUCIL] | 1.47 | 0.3 | – |
| O=c1[nH]c(=O)n([C@H]2C[C@H](O)[C@@H](CO)O2)cc1Br [BROXURIDINE] | -0.29 | – | – |
| Nc1ncn([C@@H]2O[C@H](CO)[C@@H](O)[C@H]2O)c(=O)n1 [AZACITIDINE] | -2.17 | – | 1.54 |
| CC/C(=C(\c1ccccc1)c1ccc(OCCN(C)C)cc1)c1ccccc1 [TAMOXIFEN] | – | – | 0.59 |
| O=[N+]([O-])c1cccc2ccc[n+]([O-])c12 | 1.02 | – | – |
| CC(C)[C@@H]1NC(=O)[C@H](C)OC(=O)[C@@H](C(C)C)NC(=O)[C@@H](C(C)C)OC(=O)[C@H](C(C)C)NC(=O)[C@H](C)OC(=O)[C@@H](C(C)C)NC(=O)[C@@H](C(C)C)OC(=O)[C@H](C(C)C)NC(=O)[C@H](C)OC(=O)[C@@H](C(C)C)NC(=O)[C@@H](C(C)C)OC1=O [VALINOMYCIN] | 3.24 | – | 0.59 |
| CC[n+]1c(-c2ccccc2)c2cc(N)ccc2c2ccc(N)cc21.[Br-] [HOMIDIUM BROMIDE] | 1.15 | 1.04 | – |
| Nc1n[nH]c(N)n1 [GUANAZOLE] | -1.61 | – | 0.08 |
| CC1(C)N=C(N)N=C(N)N1c1cccc(O)c1 | -3.67 | – | 1.86 |
| CC1(C)N=C(N)N=C(N)N1c1ccccc1 | -3 | – | 2.18 |
| CC1(C)N=C(N)N=C(N)N1c1cccc(COc2cccc(-c3ccccc3)c2)c1 | 0.69 | – | 1.22 |
| N[C@@H](Cc1ccc(N(CCCl)CCCl)cc1)C(=O)O | -0.52 | 1.18 | – |
| NC(=O)NO [HYDROXYUREA] | -1.27 | – | 0.3 |
| CC1(C)N=C(N)N=C(N)N1c1cccc(Br)c1 | -2.14 | – | 2.06 |
| CCCCCCCCCCCCc1cccc(N2C(N)=NC(N)=NC2(C)C)c1 | 3.41 | – | 0.52 |
| CN[C@H]1CCc2cc(OC)c(OC)c(OC)c2-c2ccc(OC)c(=O)cc21 [DEMECOLCINE] | 1.37 | 1.2 | – |
| C[N+]1(C)CCC(OC(=O)C(c2ccccc2)c2ccccc2)CC1.[I-] [4-DAMP] | 2.64 | – | 1.63 |
| CO[C@H](C(=O)[C@@H](O)[C@@H](C)O)[C@@H]1Cc2cc3cc(O[C@H]4C[C@@H](O[C@@H]5C[C@@H](O)[C@H](O)[C@@H](C)O5)[C@H](O)[C@@H](C)O4)c(C)c(O)c3c(O)c2C(=O)[C@H]1O[C@H]1C[C@@H](O[C@@H]2C[C@@H](O)[C@@H](O[C@@H]3C[C@](C)(O)[C@H](O)[C@@H](C)O3)[C@@H](C)O2)[C@H](O)[C@@H](C)O1 [PLICAMYCIN] | – | – | 0.66 |
| CO[C@H](C(=O)[C@@H](O)[C@@H](C)O)[C@@H]1Cc2cc3cc(O[C@H]4C[C@@H](O[C@H]5C[C@@H](O)[C@H](O)[C@@H](C)O5)[C@H](O)[C@@H](C)O4)c(C)c(O)c3c(O)c2C(=O)[C@H]1O[C@H]1C[C@@H](O[C@H]2C[C@@H](O[C@H]3C[C@](C)(O)[C@H](O)[C@@H](C)O3)[C@@H](O)[C@@H](C)O2)[C@H](O)[C@@H](C)O1 [PLICAMYCIN] | -0.25 | – | – |
| Cc1c2oc3c(C)ccc(C(=O)N[C@@H]4C(=O)N[C@H](C(C)C)C(=O)N5CCC[C@H]5C(=O)N(C)CC(=O)N(C)[C@@H](C(C)C)C(=O)O[C@@H]4C)c3nc-2c(C(=O)N[C@@H]2C(=O)N[C@H](C(C)C)C(=O)N3CCC[C@H]3C(=O)N(C)CC(=O)N(C)[C@@H](C(C)C)C(=O)O[C@@H]2C)c(N)c1=O [DACTINOMYCIN] (I: T[dV]P[Sar][NMeV] / II: T[dV]P[Sar][NMeV]; ester I:1-I:C, II:1-II:C; linker I:N-II:N via Actinocin(1to9)) | 3.21 | – | 0.12 |
